Here are results for 18 molecules from patent US20260137706A1, “METHODS OF TREATING INFLAMMATORY DISEASES” (INTERLINE THERAPEUTICS, INC., priority 2023, published 2026).

For experiment [1], the target named is T1, binding of His-XIAP(BIR2)-avi fusion protein to GST-RIPK2 fusion protein (RIPK2/XIAP) (Homo sapiens, UniProt O43353).
T1 construct: made in house; host or cells: baculovirus infected Sf9 cells
Kind of experiment: RIPK2-XIAP binding competition PPI assay (TR-FRET). As to conditions: for Emax: read-out: PPI Amax bin; for IC50: read-out: PPI IC50 bin. The method, boiled down: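 Compounds (in DMSO, 100-fold stock) incubated 120 min at 23 °C with 1 nM GST-RIPK2 (aa 1-310) and 25 nM His-XIAP(BIR2 aa 152-231)-avi, plus anti-His-XL665 and anti-GST-Tb, in pH 7.5 Tris buffer. Read-out: 665/520 nm emission ratio. Normalized to no-inhibitor (0%) and 50 nM GSK583 (−100%); Amax binned A–D.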
For orientation: TR-FRET usually uses a lanthanide donor and a delayed reading to cut background.

Experiment [2] deals with T2, GST-RIPK2 fusion protein (human RIPK2, amino acids 1-310) (Homo sapiens, UniProt O43353).
T2 construct: made in house; host or cells: baculovirus infected Sf9 cells
The experiment is described as follows: RIPK2 binding competition assay (TR-FRET, Tracer 199 displacement). The conditions noted are these: 10 nM Tracer 199, 1 nM GST-RIPK2, read-out: RIPK2 IC50. An excerpt:
The ability of selected compounds of Formula (I) to inhibit the binding of an Alexa647-labelled ATP-competitive kinase inhibitor to a GST-RIPK2 fusion protein was quantified employing the TR-FRET-based RIPK2 binding competition assay as described in the following paragraphs.
Recombinant fusion protein of N-terminal Glutathione-S-Transferase (GST) and a fragment of human RIPK2 (amino acids 1-310 of accession number 043353), expressed in baculovirus infected Sf9 cells, purified via glutathione affinity chromatography, was used as GST-RIPK2 fusion protein. Tracer 199 from Life Technologies (catalogue no. PR9115B) was used as Alexa647-labelled ATP-competitive kinase inhibitor.
For the assay, 50 nL of a 100-fold concentrated solution of each test compound in DMSO was pipetted into either a black low volume 384-well microtiter plate or a black 1536-well microtiter plate (both Greiner Bio-One, Frickenhausen, Germany), 3 μL solution of Tracer 199 (16.7 nM=>final concentration in 5 μL assay volume is 10 nM) in aqueous assay buffer (25 mM Tris/HCl pH 7.5, 10 mM magnesium chloride (MgCl2), 5 mM β-glycerophosphate, 2.5 mM dithiothreitol (DTT), 0.5 mM ethylene glycol-bis(2-aminoethylether)-N,N,N′,N′-tetraacetic acid (EGTA), 0.5 mM sodium ortho-vanadate, 0.01% (w/v) bovine serum albumin (BSA), 0.005% (w/v) Pluronic F-127 (Sigma)) were added. Then the binding competition was started by the addition of 2 μL of a solution of the GST-RIPK2 fusion protein (2.5 nM=>final conc. in the 5 μL assay volume is 1 nM) and of Anti-GST-Tb (1.25 nM=>final conc. in the 5 μL assay volume is 0.5 nM), a Lumi4®—Tb cryptate-conjugated anti-GST antibody from PerkinElmer (catalogue no 61GSTTAH), in assay buffer.
The resulting mixture was incubated 45 min at 22° C. to allow the formation of a complex between the Tracer 199, the fusion protein and Anti-GST-Tb. Subsequently, the amount of this complex was evaluated by measurement of the resonance energy transfer from the Tb-cryptate to the Tracer 199. Therefore, the fluorescence emissions at 620 nm and 665 nm after excitation at 337 nm were measured in a TR-FRET reader, e.g. a Pherastar FS (BMG Labtechnologies, Offenburg, Germany) or a Viewlux (PerkinElmer). The ratio of the emissions at 665 nm and at 620 nm was taken as the measure of the amount of the complex. The data were normalized (assay reaction without inhibitor=0% activity, all other assay components but no GST-RIPK2 fusion protein=−100% activity).
Table A1 below lists IC50 values of selected compounds of Formula (I) measured in the RIPK2 binding competition assay.

Experiment [3] has as its system NF-κB pathway (SEAP) in THP1-Dual cells. Kind of experiment: THP-1 Dual cell SEAP assay (L18-MDP stimulated). The experiment is classed as cell-based. The conditions noted are these: Homo sapiens, THP1-Dual, read-out: NF-κB THP1 IC50 bin. In short, it runs like this:
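THP1-Dual cells (~25,000/well) were preincubated 30 min with serially diluted compounds, then stimulated with 10 ng/mL L18-MDP (final) for 20-24 h at 37 °C. Supernatant SEAP was read with QUANTI-Blue at OD 620-655 nm after 2 h. IC50 came from non-linear fits of % inhibition versus DMSO/L18-MDP controls after media-blank subtraction.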

The mark [4] stands for this setting: RIPK2/XIAP binding competition PPI assay, Amax.
[5] abbreviates: RIPK2/XIAP binding competition PPI assay.

The structures appear in SMILES notation. Where two headings read alike, the source gives them in different places.

T2 sequence (O43353 1-310): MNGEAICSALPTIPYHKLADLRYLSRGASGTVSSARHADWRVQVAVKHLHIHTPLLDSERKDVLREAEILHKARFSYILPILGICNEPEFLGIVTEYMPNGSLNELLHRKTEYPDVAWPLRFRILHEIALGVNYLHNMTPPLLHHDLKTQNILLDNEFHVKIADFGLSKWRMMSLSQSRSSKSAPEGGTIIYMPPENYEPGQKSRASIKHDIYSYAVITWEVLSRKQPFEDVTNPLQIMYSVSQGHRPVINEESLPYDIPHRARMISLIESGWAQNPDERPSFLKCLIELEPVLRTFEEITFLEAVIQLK
T1 sequence (O43353 1-310 limits assumed): as the sequence (O43353 1-310) above

As usually defined, the IC50 is the concentration needed to halve the response being measured. For the molecule `Nc1cc(-c2cnc3ccc(C(F)(F)F)cn23)cc(F)n1` [Example 4, 6-fluoro-4-(6-(trifluoromethyl)imidazo[1,2-a]pyridin-3-yl)pyridin-2-amine], in experiment [1] (setting [4]), the Emax was under 30%. The IC50 in experiment [1] (setting [5]) was over 20 nM; in experiment [2], over 20 nM; in experiment [3], 250 to 1000 nM.
In the case of `OCCCNc1cc(-c2cnc3ccc(C(F)(F)F)cn23)cc(F)n1` [Example 5, 3-((6-fluoro-4-(6-(trifluoromethyl)imidazo[1,2-a]pyridin-3-yl)pyridin-2-yl)amino)propan-1-ol], in experiment [1] (setting [4]), the Emax was under 30%. Besides, the IC50 in experiment [1] (setting [5]) was over 20 nM; in experiment [2], over 20 nM; in experiment [3], 250 to 1000 nM.
Turning to `OCCCNc1cc(-c2cnn3ccc(C(F)(F)F)cc23)cc(F)n1` [Example 6, 3-((6-fluoro-4-(5-(trifluoromethyl)pyrazolo[1,5-a]pyridin-3-yl)pyridin-2-yl)amino)propan-1-ol], the Emax in experiment [1] (setting [4]) was under 30%. The results for the IC50 in experiment [1] (setting [5]), in experiment [2] and in experiment [3] were over 20 nM, 2.5 to 20 nM and 50 to 250 nM, respectively.
Regarding `COc1cc2ncc(-c3cc(N)cc4[nH]ncc34)n2cc1S(=O)(=O)C(C)(C)C` [Example 7, 4-[7-Methoxy-6-(2-methylpropane-2-sulfonyl)imidazo[1,2-a]pyridin-3-yl]-1H-indazol-6-amine], in experiment [1] (setting [4]), the Emax was in the range of 30 to 55%. Besides, the IC50 in experiment [1] (setting [5]) was over 20 nM; in experiment [2], over 20 nM; in experiment [3], over 1000 nM.
Consider `COc1cc2ncc(-c3ccc(NC(C)=O)nc3)n2cc1S(=O)(=O)C(C)(C)C` [Example 8, N-(5-(6-(tert-butylsulfonyl)-7-methoxyimidazo[1,2-a]pyridin-3-yl)pyridin-2-yl)acetamide], for which the Emax in experiment [1] (setting [4]) was under 30%. Moreover, the IC50 in experiment [1] (setting [5]) is over 20 nM; in experiment [2], over 20 nM; in experiment [3] it was over 1000 nM.
In the case of `COC(=O)Nc1ccc(-c2cnc3cc(OC)c(S(=O)(=O)C(C)(C)C)cn23)cn1` [Example 9, methyl (5-(6-(tert-butylsulfonyl)-7-methoxyimidazo[1,2-a]pyridin-3-yl)pyridin-2-yl)carbamate], in experiment [1] (setting [4]), the Emax was under 30%. For the same molecule, the IC50 in experiment [1] (setting [5]) was over 20 nM; in experiment [2] it was over 20 nM; in experiment [3], over 1000 nM.
As for `COc1cc2ncc(-c3cc4cn[nH]c4cn3)n2cc1S(=O)(=O)C(C)(C)C` [Example 11, 5-(6-(tert-butylsulfonyl)-7-methoxyimidazo[1,2-a]pyridin-3-yl)-1H-pyrazolo[3,4-c]pyridine], the IC50 in experiment [1] (setting [5]) is over 20 nM; in experiment [2], 2.5 to 20 nM; in experiment [3], under 50 nM. Further, the Emax in experiment [1] was under 30%.
Regarding `CC(C)(C)S(=O)(=O)c1cn2c(-c3cc(F)c(N)nc3F)cnc2cc1OCCO` [Example 12, 2-((3-(6-amino-2,5-difluoropyridin-3-yl)-6-(tert-butylsulfonyl)imidazo[1,2-a]pyridin-7-yl)oxy)ethan-1-ol], the figures for the IC50 in experiment [1] (setting [5]), in experiment [2] and in experiment [3] were 2.5 to 20 nM, 2.5 to 20 nM and 50 to 250 nM, respectively. Also, the Emax in experiment [1] is over 80%.
In the case of `CC(C)(C)S(=O)(=O)c1cn2c(-c3cc(Cl)c(N)nc3F)cnc2cc1OCCO` [Example 13, 2-((3-(6-amino-5-chloro-2-fluoropyridin-3-yl)-6-(tert-butylsulfonyl)imidazo[1,2-a]pyridin-7-yl)oxy)ethan-1-ol], in experiment [1] (setting [4]), the Emax is over 80%. The IC50 in experiment [1] (setting [5]) is 1 to 2.5 nM; in experiment [2] it was 1 to 2.5 nM; in experiment [3], 50 to 250 nM.
Consider `CC(C)(C)S(=O)(=O)c1cc2c(-c3cc(F)c(N)nc3F)cnn2cc1OCCO` [Example 14, 2-((3-(6-amino-2,5-difluoropyridin-3-yl)-5-(tert-butylsulfonyl)pyrazolo[1,5-a]pyridin-6-yl)oxy)ethan-1-ol], for which the Emax in experiment [1] (setting [4]) was over 80%. Moreover, the IC50 in experiment [1] (setting [5]) fell in the range of 1 to 2.5 nM; in experiment [2], 1 to 2.5 nM; in experiment [3], 50 to 250 nM.
Take `CC(C)(C)S(=O)(=O)c1cc2c(-c3cc(Cl)c(N)nc3F)cnn2cc1OCCO` [Example 15, 2-((3-(6-amino-5-chloro-2-fluoropyridin-3-yl)-5-(tert-butylsulfonyl)pyrazolo[1,5-a]pyridin-6-yl)oxy)ethan-1-ol]: in experiment [1] (setting [4]), the Emax was over 80%. Besides, the IC50 was 1 to 2.5 nM in experiment [1] (setting [5]), 1 to 2.5 nM in experiment [2] and 50 to 250 nM in experiment [3].
Take `COCCOc1cc2ncc(-c3cc(F)c(N)nc3F)n2cc1S(=O)(=O)C(C)(C)C` [Example 16, 5-(6-(tert-butylsulfonyl)-7-(2-methoxyethoxy)imidazo[1,2-a]pyridin-3-yl)-3,6-difluoropyridin-2-amine]: in experiment [1] (setting [4]), the Emax was over 80%. The half-inhibitory concentration (IC50) in experiment [1] (setting [5]) was in the range of 2.5 to 20 nM; in experiment [2] it was 2.5 to 20 nM; in experiment [3] it was 250 to 1000 nM.
For `CC(C)(C)S(=O)(=O)c1cn2c(-c3cc(F)c(N)nc3F)cnc2cc1OCCCO` [Example 17, 3-((3-(6-amino-2,5-difluoropyridin-3-yl)-6-(tert-butylsulfonyl)imidazo[1,2-a]pyridin-7-yl)oxy)propan-1-ol], the Emax in experiment [1] (setting [4]) was over 80%. For the same molecule, the IC50 in experiment [1] (setting [5]) is 1 to 2.5 nM; in experiment [2], 1 to 2.5 nM; in experiment [3] it was 50 to 250 nM.
`CC(C)(C)S(=O)(=O)c1cn2c(-c3cc(F)c(N)nc3F)cnc2cc1OCCN1CCOCC1` [Example 18, 5-(6-(tert-butylsulfonyl)-7-(2-morpholinoethoxy)imidazo[1,2-a]pyridin-3-yl)-3,6-difluoropyridin-2-amine]: the Emax in experiment [1] (setting [4]) was over 80%. In addition, the IC50 lay within 2.5 to 20 nM in experiment [1] (setting [5]), 2.5 to 20 nM in experiment [2] and 250 to 1000 nM in experiment [3].
Take `CN1CCN(CCOc2cc3ncc(-c4cc(F)c(N)nc4F)n3cc2S(=O)(=O)C(C)(C)C)CC1` [Example 19, 5-(6-(tert-butylsulfonyl)-7-(2-(4-methylpiperazin-1-yl)ethoxy)imidazo[1,2-a]pyridin-3-yl)-3,6-difluoropyridin-2-amine]: the Emax in experiment [1] (setting [4]) was over 80%. The IC50 in experiment [1] (setting [5]) was 2.5 to 20 nM; in experiment [2], 2.5 to 20 nM; in experiment [3] it was 250 to 1000 nM.
Consider `CN(C)CCOc1cc2ncc(-c3cc(F)c(N)nc3F)n2cc1S(=O)(=O)C(C)(C)C` [Example 20, 5-(6-(tert-butylsulfonyl)-7-(2-(dimethylamino)ethoxy)imidazo[1,2-a]pyridin-3-yl)-3,6-difluoropyridin-2-amine], for which the Emax in experiment [1] (setting [4]) was over 80%. The IC50 in experiment [1] (setting [5]) is over 20 nM; in experiment [2], 2.5 to 20 nM; in experiment [3], over 1000 nM.
Take `CC(C)(C)S(=O)(=O)c1cn2c(-c3cc(F)c(N)nc3F)cnc2cc1OCCN1CCNCC1` [Example 21, 5-(6-(tert-butylsulfonyl)-7-(2-(piperazin-1-yl)ethoxy)imidazo[1,2-a]pyridin-3-yl)-3,6-difluoropyridin-2-amine]: the Emax in experiment [1] (setting [4]) is over 80%. The IC50 in experiment [1] (setting [5]) was 2.5 to 20 nM; in experiment [2], 1 to 2.5 nM; in experiment [3], over 1000 nM.
Consider `Cn1cc(-c2cc3ncc(-c4cc(F)c(N)nc4F)n3cc2S(=O)(=O)C(C)(C)C)cn1` [Example 22, 5-(6-(tert-butylsulfonyl)-7-(1-methyl-1H-pyrazol-4-yl)imidazo[1,2-a]pyridin-3-yl)-3,6-difluoropyridin-2-amine], for which the Emax in experiment [1] (setting [4]) is over 80%. Moreover, the IC50 in experiment [1] (setting [5]) was in the range of 2.5 to 20 nM; in experiment [2], 2.5 to 20 nM; in experiment [3], 250 to 1000 nM.
